Patent US9233164B2, “Water soluble fullerene formulations and methods of use thereof” (BOARD OF REGENTS OF THE UNIVERSITY OF NEBRASKA, priority 2011, dated 2016)

System: superoxide
Experiment: Cell-free superoxide scavenging by EPR spectroscopy (HX+XO or FMN source, CMH spin probe)
Format: biochemical
Details: 400 U/ml SOD1
Protocol: The ability of C60-polymer complexes to scavenge superoxide was measured by EPR spectroscopy, as reported (Rosenbaugh et al. (2010) Biomaterials 31:5218-26). Briefly, superoxide generated by HX—XO or a photosensitizer, FMN, was detected using the CMH spin probe. Samples contained 0.025 mM DF and 0.005 mM DETC buffer (pH 7.4), 0.025 mM CMH, 0.025 mM HX and 10 mU XO (or 0.02 mM FMN instead of HX—XO) and C60-polymer complexes at different concentrations. After complete mixing, each sample was incubated at r.t. for 5 minutes and 50 μl of the sample was loaded into a glass capillary, which was then inserted into the capillary holder of the EPR spectrometer. The CMH radical signal was recorded and EPR spectrum amplitude was quantified.

In the case of superoxide dismutase [SOD1], the “Effect on EPR spectrum” value is reported as “completely abolished the EPR spectrum”.
